{"source": "paper PMC7870829", "about": "“Structural basis for the biosynthesis of lovastatin” (Nature Communications, 2021)", "key": {"LovC": {"target": "T1, LovC (Aspergillus terreus, UniProt Q9Y7D0)", "T1 construct": "full-length, His-tagged (pET28_LovCcH), expressed in E. coli, without LovB", "T1 sequence (Q9Y7D0 1-363)": "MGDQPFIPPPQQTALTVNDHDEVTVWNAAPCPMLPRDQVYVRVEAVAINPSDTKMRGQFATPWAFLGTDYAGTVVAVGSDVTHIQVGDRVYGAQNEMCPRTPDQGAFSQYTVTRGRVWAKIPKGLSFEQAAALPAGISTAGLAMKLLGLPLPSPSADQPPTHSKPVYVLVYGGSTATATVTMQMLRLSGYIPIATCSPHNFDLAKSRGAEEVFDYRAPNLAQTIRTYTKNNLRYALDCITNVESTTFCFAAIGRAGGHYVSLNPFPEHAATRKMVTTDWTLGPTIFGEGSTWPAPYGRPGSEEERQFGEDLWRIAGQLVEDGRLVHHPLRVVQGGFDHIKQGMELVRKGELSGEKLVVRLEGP", "test": "NADPH fluorescence (Ex […] nm, Em […] nm)", "format": "biochemical", "conditions": "100 μM NADPH, 200 μM crotonoyl-CoA, 100 mM KH2PO4 pH 7.0, 2% DMSO, 25 °C"}, "LovB": {"target": "T2, LovB (Aspergillus terreus, UniProt Q9Y8A5)", "T2 construct": "dimer; ACP and CON domains not resolved; DSS-crosslinked with LovC for cryo-EM", "T2 sequence (Q9Y8A5 whole entry, the tested form may be a part)": "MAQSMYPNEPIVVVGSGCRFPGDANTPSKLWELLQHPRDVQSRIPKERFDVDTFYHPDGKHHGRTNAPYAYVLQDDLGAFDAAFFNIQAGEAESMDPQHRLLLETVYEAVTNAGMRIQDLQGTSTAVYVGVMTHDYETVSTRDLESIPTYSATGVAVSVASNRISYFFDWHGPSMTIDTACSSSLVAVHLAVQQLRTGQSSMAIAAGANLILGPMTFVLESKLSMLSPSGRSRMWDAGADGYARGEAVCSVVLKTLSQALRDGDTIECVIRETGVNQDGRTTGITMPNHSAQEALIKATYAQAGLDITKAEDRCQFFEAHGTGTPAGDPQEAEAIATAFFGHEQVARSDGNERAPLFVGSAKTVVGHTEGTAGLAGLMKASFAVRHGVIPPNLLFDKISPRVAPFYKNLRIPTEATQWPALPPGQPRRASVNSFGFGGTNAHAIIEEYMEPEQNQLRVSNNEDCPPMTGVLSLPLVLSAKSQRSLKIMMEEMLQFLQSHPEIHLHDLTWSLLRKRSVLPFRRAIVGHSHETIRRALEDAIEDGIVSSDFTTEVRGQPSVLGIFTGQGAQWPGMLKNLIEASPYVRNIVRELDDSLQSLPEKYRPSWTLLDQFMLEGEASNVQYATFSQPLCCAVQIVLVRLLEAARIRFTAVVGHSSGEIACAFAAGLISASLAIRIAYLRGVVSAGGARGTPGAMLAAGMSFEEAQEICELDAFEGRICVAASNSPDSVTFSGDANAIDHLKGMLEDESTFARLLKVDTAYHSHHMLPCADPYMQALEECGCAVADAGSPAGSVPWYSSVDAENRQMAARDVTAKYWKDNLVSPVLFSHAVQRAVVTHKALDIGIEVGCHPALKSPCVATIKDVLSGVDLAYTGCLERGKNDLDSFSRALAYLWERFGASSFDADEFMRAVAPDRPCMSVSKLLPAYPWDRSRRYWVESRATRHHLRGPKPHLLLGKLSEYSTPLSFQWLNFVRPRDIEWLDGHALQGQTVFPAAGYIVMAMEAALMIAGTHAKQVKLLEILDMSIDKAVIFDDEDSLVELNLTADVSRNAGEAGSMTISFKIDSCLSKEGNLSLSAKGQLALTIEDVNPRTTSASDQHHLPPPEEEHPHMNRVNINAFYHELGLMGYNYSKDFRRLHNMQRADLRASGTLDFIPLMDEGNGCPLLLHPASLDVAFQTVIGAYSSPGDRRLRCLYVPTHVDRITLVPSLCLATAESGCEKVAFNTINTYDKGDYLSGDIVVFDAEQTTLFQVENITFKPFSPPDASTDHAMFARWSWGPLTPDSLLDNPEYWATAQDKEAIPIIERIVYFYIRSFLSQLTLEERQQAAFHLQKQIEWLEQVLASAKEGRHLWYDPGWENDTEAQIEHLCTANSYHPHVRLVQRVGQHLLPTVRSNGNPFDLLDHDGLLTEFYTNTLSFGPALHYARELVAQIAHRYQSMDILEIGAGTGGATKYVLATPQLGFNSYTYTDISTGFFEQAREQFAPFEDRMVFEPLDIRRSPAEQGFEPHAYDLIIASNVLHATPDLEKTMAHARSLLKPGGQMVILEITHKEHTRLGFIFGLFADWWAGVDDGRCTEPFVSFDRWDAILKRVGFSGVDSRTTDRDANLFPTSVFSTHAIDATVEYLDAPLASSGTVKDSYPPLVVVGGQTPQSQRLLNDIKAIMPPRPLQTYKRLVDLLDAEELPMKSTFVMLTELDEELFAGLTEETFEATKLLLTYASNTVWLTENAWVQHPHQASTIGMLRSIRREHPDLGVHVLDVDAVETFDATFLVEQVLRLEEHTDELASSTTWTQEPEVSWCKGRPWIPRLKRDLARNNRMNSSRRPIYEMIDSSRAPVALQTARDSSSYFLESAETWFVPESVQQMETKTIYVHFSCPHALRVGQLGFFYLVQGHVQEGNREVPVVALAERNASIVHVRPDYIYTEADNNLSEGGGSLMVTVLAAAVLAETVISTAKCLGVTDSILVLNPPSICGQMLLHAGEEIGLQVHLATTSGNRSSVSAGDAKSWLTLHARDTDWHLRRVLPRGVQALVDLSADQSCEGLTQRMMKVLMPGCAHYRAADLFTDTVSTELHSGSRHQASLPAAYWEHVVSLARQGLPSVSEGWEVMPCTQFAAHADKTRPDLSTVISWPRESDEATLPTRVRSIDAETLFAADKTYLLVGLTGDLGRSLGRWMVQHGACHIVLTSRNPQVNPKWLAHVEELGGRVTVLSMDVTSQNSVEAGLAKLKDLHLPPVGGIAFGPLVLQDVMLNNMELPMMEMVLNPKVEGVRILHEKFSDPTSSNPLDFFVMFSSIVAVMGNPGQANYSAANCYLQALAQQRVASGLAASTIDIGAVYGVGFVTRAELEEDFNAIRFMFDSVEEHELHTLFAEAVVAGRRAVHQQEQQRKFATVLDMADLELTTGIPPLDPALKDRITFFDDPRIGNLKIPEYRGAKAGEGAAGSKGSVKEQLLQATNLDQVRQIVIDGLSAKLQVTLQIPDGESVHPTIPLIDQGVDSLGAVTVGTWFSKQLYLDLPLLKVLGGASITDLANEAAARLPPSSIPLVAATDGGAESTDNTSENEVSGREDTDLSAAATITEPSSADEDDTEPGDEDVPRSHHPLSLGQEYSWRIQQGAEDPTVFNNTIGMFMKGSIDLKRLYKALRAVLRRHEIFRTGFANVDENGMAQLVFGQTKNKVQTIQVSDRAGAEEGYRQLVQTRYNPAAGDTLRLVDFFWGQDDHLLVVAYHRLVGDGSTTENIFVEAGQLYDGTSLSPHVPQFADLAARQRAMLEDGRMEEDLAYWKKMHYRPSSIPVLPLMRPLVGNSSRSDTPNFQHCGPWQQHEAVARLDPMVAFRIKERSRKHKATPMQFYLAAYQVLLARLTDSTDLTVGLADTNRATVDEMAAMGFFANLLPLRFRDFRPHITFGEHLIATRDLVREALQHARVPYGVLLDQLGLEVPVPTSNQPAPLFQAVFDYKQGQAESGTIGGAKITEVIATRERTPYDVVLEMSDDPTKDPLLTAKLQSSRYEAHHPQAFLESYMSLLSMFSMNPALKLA", "test": "cryo-EM structure", "format": "binding", "conditions": "KR domain NADPH pocket; sample with 2 mM each Mal-CoA, NADPH and SAM; pH 8.0"}, "[1]": {"target": "lovastatin nonaketide synthase (LovB), full-length, His-tagged (Aspergillus terreus) (UniProt Q9Y8A5)", "test": "cryo-EM structure; LovB mixed with LovC and 2 mM each of Mal-CoA, NADPH and SAM, cross-linked with DSS, SEC on Superose 6 Increase (50 mM Tricine pH 8.0, 4 mM SAM), cofactors re-added, 0.1% Tween 20; maps at 2.91 Å (LovB) and 3.60 Å (LovBC with one LovC)"}}}
{"compound": "NC(=O)C1=CN([C@@H]2O[C@H](COP(=O)(O)OP(=O)(O)OC[C@H]3O[C@@H](n4cnc5c(N)ncnc54)[C@H](OP(=O)(O)O)[C@@H]3O)[C@@H](O)[C@H]2O)C=CC1", "note": "[NADPH]", "values": [{"measurement": "NADPH fluorescence (Ex 340 nm, Em 455 nm)", "setting": "LovC", "value": "NADPH was oxidized in the presence of substrate over time"}]}
{"compound": "NC(=O)c1ccc[n+]([C@@H]2O[C@H](COP(=O)(O)OP(=O)(O)OC[C@H]3O[C@@H](n4cnc5c(N)ncnc54)[C@H](OP(=O)(O)O)[C@@H]3O)[C@@H](O)[C@H]2O)c1", "note": "[NADP+]", "values": [{"measurement": "cryo-EM structure", "setting": "LovB", "value": "The NADPH binding pocket with bound NADP^+ nicotinamide ring can be clearly identified"}]}
{"compound": "lovastatin nonaketide synthase (LovB), full-length, His-tagged, Q9Y8A5 1-3038", "values": [{"measurement": "stoichiometry N", "setting": "[1]", "value": 2}]}
